Measurements taken from paper PMC9822769, “The Strange Case: The Unsymmetric Cisplatin-Based Pt(IV) Prodrug [Pt(CH3COO)Cl2(NH3)2(OH)] Exhibits Higher Cytotoxic Activity with respect to Its Symmetric Congeners due to Carrier-Mediated Cellular Uptake” (Bioinorganic Chemistry and Applications, 2022).

Tests used:
[1] = Immobilized artificial membrane (IAM) chromatography, log KW; type: physicochemical; settings: IAM column; log k′ extrapolated to fully aqueous mobile phase
Procedure: Retention times, tR, were measured on two columns: (i) a standard C18 column (Phenomenex Phenosphere-NEXT, 250 × 4.6 mm, 5 μm) and (ii) an IAM.PC.DD.2 column (Regis, 10 cm × […], 10 μm packing 300 Å pore size), prepared by covalently bonding cell-membrane-forming phospholipids to silica. On (i), a chromatogram was performed for each complex (0.25 mM) in a fixed eluent composition (30% methanol/70% aqueous 15 mM formic acid; flow rate 0.5 mL·min^−1) using a Waters HPLC-MS instrument (equipped with an Alliance 2695 separation module, a 2487 dual lambda absorbance detector, and a 3100 mass detector). The UV-vis detector was set at 210 nm. In (ii), the mobile phase consisted of 20 mM ammonium acetate buffer at pH 6.9 and acetonitrile flowing at 1 mL·min^−1. The samples were dissolved in the mobile phase in a concentration range of 50–100 μg·mL^−1. An HPLC Varian ProStar instrument equipped with a 410 autosampler, a PDA 335 LC detector, and Galaxie Chromatography Data System Version 1.9.302.952 was used.
The different tRs were used to calculate log k′, which is the logarithm of the retention factor k′ = (tR − t0)/t0, where t0 is the column dead time (i.e., the tR of KCl or citric acid used as the internal reference for (i) and (ii), respectively).
In the case of IAM, the log KW values were calculated by an extrapolation method. Log k′ values were determined at a minimum of three different percentages of acetonitrile (ϕ) in the mobile phases (from 10 to 50%, v/v), and the intercept values of the linear relationships between log k′ and ϕ values were assumed as log KW [65, 66].
Immobilized artificial membrane (IAM) chromatography is a complementary technique for evaluating the interaction of a drug with the cellular membrane. In this technique, the stationary silica phase is covalently bonded to phospholipids, giving a material that is more similar to the cell membrane than the simpler aliphatic chains of the RP-HPLC columns. The log KW values (i.e., log k′ values extrapolated at fully aqueous mobile phase) show the same trend for the three Pt(IV) complexes (log KW = −0.64, −1.06, −0.96, and −0.83 for cisplatin, 1, 2, and 3, respectively) (Table 1).

A2780 cells = assay: Cellular Pt accumulation in A2780 cells in the presence of uptake inhibitors; type: cell-based, human; settings: A2780, 1 h, 10 μM; for effect of NaN3/2DG pretreatment on cell accumulation (AR): NaN3 and 2DG both 25 mM
Procedure: A2780 and A2780cisR cells were seeded in 10 mm Petri dishes and challenged with complexes under investigation (10 μM) in a complete medium for 4 h. At the end of the exposure, cells were washed three times with PBS, detached from Petri dishes using 0.05% trypsin 1x + 2% EDTA (HyClone, Thermo Fisher), and harvested in a completely fresh medium. An automatic cell counting device (Countess®, Life Technologies) was used to measure the number and mean diameter of each cell necessary to calculate the mean cellular (spherical) volume.
For the analysis of Pt accumulation, cells were transferred to a borosilicate glass tube and centrifuged at 1100 rpm for 5 min at room temperature. The supernatant was carefully removed by aspiration, while approximately, 200 μL of the supernatant was left to limit cell loss. Cellular pellets were stored at −80°C until mineralization.
The determination of the platinum content was performed by ICP-MS (Thermo Optek X Series 2). Mineralization was carried out by adding 70% w/w HNO3 to each sample (after defrosting), followed by incubation for 1 h at 60°C in an ultrasonic bath. Before the ICP-MS measurement, HNO3 was diluted to a final concentration of 1%. The instrument settings were optimized to produce the highest platinum sensitivity, and the most abundant isotopes of Pt and In (used as an internal standard) were quantified at m/z 195 and 115, respectively.
The quantity of Pt found in cells and normalized on cell number (cellular Pt accumulation) was expressed as ng of Pt per 10^6 cells. The mean cellular volume, calculated from the actual mean cell diameter measured for each sample (about 12 μm), was used to obtain the volume of 10^6 cells and, finally, the intracellular Pt concentration. At treatment time zero, 100 μL of the medium was taken from each sample to verify the extracellular Pt concentration. The ratio between intracellular and the actual extracellular concentrations is defined as the accumulation ratio, AR [70]. The Pt content in the control experiment, which characterizes any possible Pt contamination during the overall process, was statistically insignificant with respect to the cellular Pt accumulated during treatment, even in the case of A2780cisR.
Experiments with the inhibitors were carried out at 37°C as follows: (i) NaN3 + 2-deoxy-D-glucose (2DG): preincubation for 30 min in PBS with 25 mM NaN3 and 25 mM 2DG, followed by a 10 μM CT with the Pt compounds in Earle's Balanced Salt Solution (EBSS) for 1 h; (ii) cimetidine (CMT): coincubation with 1.5 mM CMT and 10 μM Pt compounds in EBSS for 1 h; (iii) 1-methyl-4-phenylpyridin-1-ium (MPP^+): coincubation with 2.0 mM MPP^+ and 10 μM Pt compounds in EBSS for 1 h; (iv) cytochalasin D (CTD): preincubation for 30 min in EBSS with 10 μM CTD, followed by a 10 μM CT with the Pt compounds in EBSS for 1 h; (v) O-benzylserine (BS): coincubation with 1.0 mM BS and 10 μM Pt compounds in EBSS for 4 h; (vi) ouabain (OUA): preincubation for 1 h in EBSS with 1 mM OUA, followed by a 10 μM CT with the Pt compounds in EBSS for 4 h; (vii) tetraethylammonium chloride (TEA): […] in EBSS for 4 h. In the experiments at low temperature, A2780 cells were preincubated for 2 h at 4°C, followed by CT with each Pt compound (10 μM) for 4 h. In all cases, at the end of the CT, the cells were manipulated as described in the previous paragraphs.

| Structure (SMILES) | Log KW [1] | effect of OCT inhibitors (TEA, MPP+, CMT) on AR (A2780 cells) | effect of NaN3/2DG pretreatment on cell accumulation (AR) (A2780 cells) | effect of O-benzylserine (BS) on cellular accumulation (A2780 cells; BS cotreatment 1 mM) | effect of cimetidine (CMT) on cell accumulation (A2780 cells; CMT cotreatment 1.5 mM) | effect of cytochalasin D (CTD) on Pt accumulation (A2780 cells; CTD pretreatment 10 μM) | effect of MPP+ on cell accumulation (A2780 cells; MPP+ cotreatment 2 mM) | effect of ouabain (OUA) on cellular accumulation (A2780 cells; OUA pretreatment 1 mM) | effect of tetraethylammonium (TEA) on uptake (A2780 cells; TEA pretreatment 20 mg·mL^−1) |
| --- | --- | --- | --- | --- | --- | --- | --- | --- | --- |
| N.N.[Cl][Pt][Cl] [Cisplatin, (SP-4-2)-diamminedichloridoplatinum(II)] | −0.64 |  |  |  |  |  |  |  |  |
| N.N.[OH][Pt]([OH])([Cl])[Cl] [Complex 1, (OC-6-33)-diamminedichloridodihydroxidoplatinum(IV)] | −1.06 | not significantly affected | without appreciably affecting |  |  |  |  |  |  |
| CC(=O)[O][Pt]([OH])([Cl])[Cl].N.N [Complex 2, (OC-6-44)-acetatodiamminedichloridohydroxidoplatinum(IV)] | −0.96 |  | statistically reduced | did not cause a significant effect | inhibited | did not cause any decrease | inhibited | did not cause a significant effect | evident (albeit statistically not significant) decrease |
| CC(=O)[O][Pt]([NH2])([NH2])([Cl])([Cl])[O]C(C)=O [Complex 3, (OC-6-33)-diamminedichloridodiacetatoplatinum(IV)] | −0.83 | not significantly affected | without appreciably affecting |  |  |  |  |  |  |
